Assay results reported in patent publication EP0048168A2, “7-Acylamino cephalosporin compounds, their preparation and pharmaceutical formulations containing them” (ELI LILLY AND COMPANY, priority 1980, dated 1982).
Values after ≈ are worked out from the molar mass of the structure shown. Where two headings read alike, the source gives them in different places.

Columns and labels:
Assay in all cases: In vitro antibacterial activity, agar dilution technique using serial dilution
Type in all cases: cell-based
Shigella sonnei = Shigella sonnei strain N9; read-out: Minimum Inhibitory Concentration
Protocol: (§1) The antibacterial activity of the compounds of the invention is illustrated by the in vitro activity of a preferred compound, 7β-[α-methoxyimino-α-(2-amino-1,3-thiazol-4-yl)acetamido]-3-(1-cyanomethyl-1H-tetrazol-5-ylthiomethyl)-3-cephem-4-carboxylic acid, against a wide spectrum of microorganisms. The activity was determined by the agar dilution technique using serial dilution.

Streptococcus pneumoniae = Streptococcus pneumoniae strain Park; read-out: Minimum Inhibitory Concentration
Protocol: as §1

Staphylococcus aureus = system: Staphylococcus aureus
Protocol: as §1

Streptococcus Group A = Streptococcus Group A strain C203; read-out: Minimum Inhibitory Concentration
Protocol: as §1

Proteus inconstans = details: Providencia alcalifaciens; Proteus inconstans strain PR33; read-out: Minimum Inhibitory Concentration
Protocol: as §1

Klebsiella sp. = Klebsiella sp. strain KAE; read-out: Minimum Inhibitory Concentration
Protocol: as §1

Escherichia coli = system: Escherichia coli
Protocol: as §1

Citrobacter freundii = Citrobacter freundii strain CF17; read-out: Minimum Inhibitory Concentration
Protocol: as §1

Proteus morganii = details: Morganella morganii; Proteus morganii strain PR15; read-out: Minimum Inhibitory Concentration
Protocol: as §1

Proteus rettgeri = details: Providencia rettgeri
Protocol: as §1

[1] = system: Bordetella bronchoseptica; details: Bordetella bronchoseptica strain 16; read-out: Minimum Inhibitory Concentration
Protocol: as §1

Pseudomonas aeruginosa = system: Pseudomonas aeruginosa
Protocol: as §1

[2] = system: Staphylococcus epidermidis
Protocol: as §1

Streptococcus Group D = details: read-out: Minimum Inhibitory Concentration
Protocol: as §1

Enterobacter aerogenes = details: Klebsiella aerogenes, read-out: Minimum Inhibitory Concentration
Protocol: as §1

Haemophilus influenzae = details: read-out: Minimum Inhibitory Concentration
Protocol: as §1

Salmonella sp. = system: Salmonella sp.
Protocol: as §1

Serratia marcescens = system: Serratia marcescens
Protocol: as §1

Enterobacter cloacae = system: Enterobacter cloacae
Protocol: as §1

Compound: CO/N=C(\C(=O)N[C@@H]1C(=O)N2C(C(=O)O)=C(CSc3nnnn3CC#N)CS[C@H]12)c1csc(N)n1 [syn 7β-[α-Methoximino-α-(2-amino-1,3-thiazol-4-yl)-acetamido]-3-(1-cyanomethyl-1H-tetrazol-5-ylthiomethyl)-3-cephem-4-carboxylic acid]
- MIC (Shigella sonnei): 0.125 µg/mL (≈ 0.233 µM)
- MIC (Streptococcus pneumoniae): 0.03 µg/mL (≈ 0.0559 µM)
- MIC (Staphylococcus aureus; Staphylococcus aureus strain V41, read-out: Minimum Inhibitory Concentration): 4 µg/mL (≈ 7.45 µM)
- MIC (Staphylococcus aureus; Staphylococcus aureus strain X1.1, read-out: Minimum Inhibitory Concentration): 1 µg/mL (≈ 1.86 µM)
- MIC (Staphylococcus aureus; Staphylococcus aureus strain X400, read-out: Minimum Inhibitory Concentration): 32 µg/mL (≈ 59.6 µM)
- MIC (Staphylococcus aureus; read-out: Minimum Inhibitory Concentration): 8 µg/mL (≈ 14.9 µM)
- MIC (Streptococcus Group A): 0.015 µg/mL (≈ 0.028 µM)
- MIC (Proteus inconstans): 0.125 µg/mL (≈ 0.233 µM)
- MIC (Klebsiella sp.): 2 µg/mL (≈ 3.73 µM)
- MIC (Escherichia coli; Escherichia coli strain EC14, read-out: Minimum Inhibitory Concentration): 0.06 µg/mL (≈ 0.112 µM)
- MIC (Escherichia coli; Escherichia coli strain N10, read-out: Minimum Inhibitory Concentration): 0.25 µg/mL (≈ 0.466 µM)
- MIC (Escherichia coli; Escherichia coli strain TEM, read-out: Minimum Inhibitory Concentration): 0.06 µg/mL (≈ 0.112 µM)
- MIC (Citrobacter freundii): 8 µg/mL (≈ 14.9 µM)
- MIC (Proteus morganii): 0.06 µg/mL (≈ 0.112 µM)
- MIC (Proteus rettgeri; read-out: Minimum Inhibitory Concentration, Proteus rettgeri strain C24): 0.125 µg/mL (≈ 0.233 µM)
- MIC (Proteus rettgeri; Proteus rettgeri strain PR7, read-out: Minimum Inhibitory Concentration): 0.06 µg/mL (≈ 0.112 µM)
- MIC [1]: 64 µg/mL (≈ 119 µM)
- MIC (Pseudomonas aeruginosa; Pseudomonas aeruginosa strain Ps18, read-out: Minimum Inhibitory Concentration): 32 µg/mL (≈ 59.6 µM)
- MIC (Pseudomonas aeruginosa; Pseudomonas aeruginosa strain X239, read-out: Minimum Inhibitory Concentration): 16 µg/mL (≈ 29.8 µM)
- MIC (Pseudomonas aeruginosa; Pseudomonas aeruginosa strain X528, read-out: Minimum Inhibitory Concentration): 16 µg/mL (≈ 29.8 µM)
- MIC ([2]; Staphylococcus epidermidis strain EPI1, read-out: Minimum Inhibitory Concentration): 4 µg/mL (≈ 7.45 µM)
- MIC ([2]; Staphylococcus epidermidis strain EPI2, read-out: Minimum Inhibitory Concentration): 8 µg/mL (≈ 14.9 µM)
- MIC (Streptococcus Group D; Streptococcus Group D strain 9960): 128 µg/mL (≈ 239 µM)
- MIC (Streptococcus Group D; Streptococcus Group D strain X66): > 128 µg/mL
- MIC (Enterobacter aerogenes; Enterobacter aerogenes strain EB17): 0.25 µg/mL (≈ 0.466 µM)
- MIC (Enterobacter aerogenes; Enterobacter aerogenes strain X68): 0.06 µg/mL (≈ 0.112 µM)
- MIC (Enterobacter aerogenes): 0.125 µg/mL (≈ 0.233 µM)
- MIC (Haemophilus influenzae; Haemophilus influenzae strain 76, resistant strain of H. influenzae): 0.015 µg/mL (≈ 0.028 µM)
- MIC (Haemophilus influenzae; Haemophilus influenzae strain C.L., sensitive strain of H. influenzae): 0.03 µg/mL (≈ 0.0559 µM)
- MIC (Salmonella sp.; Salmonella sp. strain 1335, read-out: Minimum Inhibitory Concentration): 0.5 µg/mL (≈ 0.932 µM)
- MIC (Salmonella sp.; Salmonella sp. strain X514, read-out: Minimum Inhibitory Concentration): 0.125 µg/mL (≈ 0.233 µM)
- MIC (Serratia marcescens; Serratia marcescens strain 3E3, read-out: Minimum Inhibitory Concentration): 0.25 µg/mL (≈ 0.466 µM)
- MIC (Serratia marcescens; Serratia marcescens, read-out: Minimum Inhibitory Concentration, Serratia marcescens strain X93): 0.125 µg/mL (≈ 0.233 µM)
- MIC (Enterobacter cloacae; Enterobacter cloacae strain 265A, read-out: Minimum Inhibitory Concentration): 32 µg/mL (≈ 59.6 µM)
- MIC (Enterobacter cloacae; Enterobacter cloacae strain EB5, read-out: Minimum Inhibitory Concentration): 1 µg/mL (≈ 1.86 µM)
